Where two headings read alike, the source gives them in different places.
Key:
[1] = biological target: T1, Full length USP8 (USP8FL) (Homo sapiens, UniProt P40818); experiment: USP8FL (full length USP8) enzymatic inhibition, Ub-Rhodamine 110 hydrolysis in L-cysteine buffer; assay type: biochemical; settings: USP8 FL 75 nM, Ub-Rho 0.1 μM, L-cysteine buffer
T1 construct: purchased BostonBiochem E-520
T1 sequence (P40818 1-1118): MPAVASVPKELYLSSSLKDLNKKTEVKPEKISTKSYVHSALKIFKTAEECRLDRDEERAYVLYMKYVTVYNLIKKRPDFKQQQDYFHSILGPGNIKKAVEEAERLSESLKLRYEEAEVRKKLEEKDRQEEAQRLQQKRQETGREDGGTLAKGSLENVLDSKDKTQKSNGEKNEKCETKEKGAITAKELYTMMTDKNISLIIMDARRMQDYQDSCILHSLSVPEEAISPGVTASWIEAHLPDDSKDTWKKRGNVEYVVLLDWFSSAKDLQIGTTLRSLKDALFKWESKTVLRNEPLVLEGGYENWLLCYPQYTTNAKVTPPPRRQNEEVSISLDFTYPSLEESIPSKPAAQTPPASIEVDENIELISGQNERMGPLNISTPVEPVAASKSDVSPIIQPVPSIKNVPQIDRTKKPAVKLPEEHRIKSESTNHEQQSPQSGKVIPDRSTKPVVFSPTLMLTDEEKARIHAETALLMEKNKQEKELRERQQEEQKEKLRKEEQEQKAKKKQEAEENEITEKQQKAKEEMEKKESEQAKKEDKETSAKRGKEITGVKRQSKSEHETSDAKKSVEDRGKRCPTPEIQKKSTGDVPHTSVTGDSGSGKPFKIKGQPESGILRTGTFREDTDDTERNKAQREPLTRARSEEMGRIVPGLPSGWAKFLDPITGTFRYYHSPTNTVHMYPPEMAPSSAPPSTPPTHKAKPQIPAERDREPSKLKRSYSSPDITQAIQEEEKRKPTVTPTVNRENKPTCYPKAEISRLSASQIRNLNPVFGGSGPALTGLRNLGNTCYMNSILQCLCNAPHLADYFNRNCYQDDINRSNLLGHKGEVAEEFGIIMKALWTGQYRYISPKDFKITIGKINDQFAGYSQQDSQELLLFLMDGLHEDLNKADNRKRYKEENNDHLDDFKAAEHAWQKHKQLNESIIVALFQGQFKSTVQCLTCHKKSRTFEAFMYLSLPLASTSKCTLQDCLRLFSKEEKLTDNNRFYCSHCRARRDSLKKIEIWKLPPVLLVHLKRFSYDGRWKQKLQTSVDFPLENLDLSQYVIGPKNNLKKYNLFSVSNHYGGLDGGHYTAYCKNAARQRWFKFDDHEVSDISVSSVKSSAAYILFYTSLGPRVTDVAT
Description: USP8 FL (USP8 Full Length) was incubated at a concentration of 75 nM in the presence of Ub-Rho (UBIQUIGENT ref. 60-0117-050) at a final concentration of 0.1 μM, in conditions ensuring linearity of enzyme activity throughout the assay in a specific buffer. Compounds were added to the reaction mix at different doses just before the substrate. The enzymatic reaction kinetics were monitored by measuring fluorescence elicited by the hydrolysis of Ub-Rho over 30 min.
In this setup, an in-house purified catalytic domain of USP8 (USP8CD) was used at a concentration of 80 nM in the presence of the artificial substrate Ubiquitin-Rhodamine 110 (Ub-Rho) (ref: 60-0117-050 Ubiquigent) at a final concentration of 0.1 μM, in conditions ensuring linearity of enzyme activity throughout the assay incubation time. Enzymatic assay was performed in a Tris HCl buffer (40 mM Tris HCl pH 7.4, Ovalbumine 0.5 mg/ml, Cysteine HCl 5.5 mM). Compounds to be tested were added to the reaction mix and incubated with enzyme for 20 min, before the substrate. The enzymatic reaction kinetics were monitored by measuring fluorescence elicited by the hydrolysis of the peptidyl Ub-Rho over 30 minutes. The negative control was the solvent DMSO at 1%.
Full length USP8 (USPBFL) (BostonBiochem ref. E-520) were used at a concentration of 75 nM in the presence of a ubiquitin substrate, i.e., the Ub-Rhodamine 110 (Ub-Rho) (Ubiquigent ref. 60-0117-050) at a final concentration of 0.1 μM. Enzymatic assays were performed as described for USP8-CD except that USP-FL was used at a concentration of 75 nM. The compounds were used at a final concentration of 0.1, 1, 5, 10, 50 and 100 μM in DMSO 0.5%. The USP8 catalytic activity was monitored both before adding the substrate (TO) and after twenty minutes of incubation at room temperature (Final Time TF). The enzymatic reaction kinetics were monitored by measuring fluorescence elicited by the hydrolysis of the Ub-Rho bound over 30 minutes.

AtT-20 pituitary cells = experiment: Inhibition of ACTH secretion in pituitary cells (ACTH EIA on supernatant); assay type: cell-based, mouse
Description: ACTH release (percent comparison to DMSO control). Briefly, 12,500 AtT-20 cells per well were seeded in a 96-well plate. After 24 hours exposure, cells were treated with each compound at the indicated final concentration, or with DMSO alone (control condition compound solvent) or with corticotropin releasing factor (indicated CRF) at 100 nM. After a 24-hour treatment, cell supernatants were collected and stored at −80° C., prior to quantification of ACTH concentration using ACTH chemiluminescent EIA kit (Phoenix Pharmaceuticals, Inc.). Determination of ACTH concentrations was based on the best-fitting ACTH standard curve and P values were calculated using one-way ANOVA, using Prism 9 software (GraphPad Software, Inc.) ns (P=0.12). **P<0.002. ***P<0.001. All compounds were tested in technical triplicates. One representative experiment out of three is presented.
FIG. 4: illustrates a decrease of ACTH secretion by AtT-20 cells after 24-hour treatment of halogenated salicylanilides. 12,500 AtT-20 cells per well were seeded in a 96-well plate. […] After a 24-hour treatment, cell supernatants were collected and stored at −80° C., prior to quantification of ACTH concentration using ACTH chemiluminescent EIA kit (Phoenix Pharmaceuticals, Inc.). Determination of ACTH concentrations was based on the best-fitting ACTH standard curve and P values were calculated by ordinary one-way ANOVA using Prism 6 software (GraphPad Software, Inc), ns (not significant), **** P<0.0001. Compounds were tested in technical triplicates.
12,500 AtT-20 cells per well were seeded in a 96-well plate. After 24 hours, cells were treated with compounds (corresponding chemical formula are indicated in Table 1) at 25 μM final concentration, or with DMSO alone (compound solvent). After a 24-hour treatment, cell supernatants were collected and stored at −80° C., prior to quantification of ACTH concentration using ACTH chemiluminescent EIA kit (Phoenix Pharmaceuticals, Inc.). Determination of ACTH concentrations was based on the best-fitting ACTH standard curve and P values were calculated by ordinary one-way ANOVA using Prism 6 software (GraphPad Software, Inc), ns (not significant), *P<0.05, ***P<0,0001. Compounds were tested in technical triplicates.
Mouse AtT-20 pituitary cell line were used as a powerful and well-characterized model to monitor ACTH secretion using an enzyme immunoassay (EIA) kit.
Mouse AtT-20 cells were obtained from the American Type Culture Collection and maintained on DMEM containing 10% fetal bovine serum, 100 μg/mL streptomycin and 100 U/mL penicillin at 37° C. with 5% CO2 after recovery from long-term storage on liquid nitrogen-vapor phase.
The ACTH secretion levels of AtT-20 cell culture was monitored on the supernatant of AtT-20 cells treated or not by increasing doses of compounds belonging to the family of halogenated salicylanilides chemicals.
1.25×10^4 AtT20 cells were seeded on polylysine-coated 96-well culture vessels on 150 μL of complete medium. After 24 hours, cells were treated with stock compounds to a final DMSO concentration of 0.5%. After 24 hours of treatment, cell culture supernatant was collected, cleared for 10 min at 1000×g at 4° C., diluted or not in assay buffer (Phoenix Peptide ACTH EIA EK-001-21) and frozen at −80° C. for subsequent processing according to the instructions of the kit's manufacturer.

AtT-20 cells = experiment: Cytotoxicity towards AtT-20 cells (PrestoBlue viability assay); settings: for cytotoxicity on AtT-20 cells, in words (FIG. 6): 25 μM for 24 hours
Description: The AtT-20 cells viability was monitored in the conditions used to follow ACTH secretion. The viability of treated cells was concomitantly evaluated using a Cell Viability Reagent (monitoring of the cells' reducing capacity) (PrestoBlue® assay, Molecular Probes) with the aim to determine non-toxic doses of cell treatment.
After the collection of the supernatant sample for the ACTH assay in the previous step, cells were supplemented with the PrestoBlue™ cell viability reagent (Invitrogen™ A13261) at 10% final volume, and re-incubated at 37° C. for 30 minutes. Fluorescence was then read with a FLUOstar OPTIMA microplate reader.

[2] = read-out: USP8FL inhbition IC50 [μM] (CI: Confidence Interval)
[3] = Mus musculus, AtT20, 25 μM, 24-hour treatment, AtT-20 supernatant, read-out: ACTH secretion % of control (DMSO) at 25 μM

| IC50 [1, 2] [µM] | Structure (SMILES) | inhibition of ACTH at 25 μM, in words (FIG. 4, FIG. 5) (AtT-20 pituitary cells; 25 μM, 24-hour treatment) | activity at 25 µM (AtT-20 pituitary cells; [3]) [%] | AtT-20 cell viability (PrestoBlue assay) % of control (DMSO) at 25 μM Mean (SD) (AtT-20 cells; 24-hour exposure) | also measured |
| --- | --- | --- | --- | --- | --- |
| 4.34 | O=C(Nc1ccc(Cl)cc1Cl)c1cc(I)cc(I)c1O [Amb8487151] | significant inhibition | 44 | 89.58 (10.11) % | – |
| > 40 | O=C(NCc1cccc(OCc2ccccn2)c1)c1csc(Br)c1 [Z424433412] | ineffective | 80 | 98.93 (14.69) % | inhibition at 25 µM (AtT-20 pituitary cells; Mus musculus, AtT20, 25 μM, 24-hour treatment, p<0.05): 20% |
| – | Cc1ccc(NC(=O)c2cc(Cl)ccc2O)cc1 [OSSL-122817] | ineffective | 118 | – | – |
| 61 | O=C(Nc1ccc([N+](=O)[O-])cc1Cl)c1cc(Cl)ccc1O [Niclosamide, reference compound] | significant inhibition | – | – | reduction of ACTH secretion levels (AtT-20 pituitary cells; 0.5 μM): 27%; reduction of ACTH secretion levels (AtT-20 pituitary cells; 1.0 μM): 41%; activity at 27 µM (AtT-20 pituitary cells; Mus musculus, AtT20, 27 μM, 24-hour treatment, AtT-20 supernatant, read-out: ACTH secretion % of control (DMSO) (at 27 μM)): 41%; dose-dependent inhibition of ACTH (FIG. 3) (AtT-20 pituitary cells; increasing concentrations, 24-hour treatment): significant dose-dependent inhibition; toxicity in AtT-20 cells, in words (AtT-20 cells; 0.5 μM): no significant toxicity; toxicity in AtT-20 cells, in words (AtT-20 cells; 1.0 μM): no significant toxicity; AtT-20 cell viability (PrestoBlue assay) % of control (DMSO) (at 27 μM) Mean (SD) (AtT-20 cells; 27 μM, 24-hour exposure): 50% (12,40) (at 27 μM); dose-dependent viability assay, in words (FIG. 7) (AtT-20 cells; AtT-20 cells, 24-hour exposure, several doses): considerable effects on viability upon higher doses |
| > 40 | Cc1ccc(NC(=O)Cn2ccccc2=O)c(OCc2ccccc2)c1 [Z738998144] | ineffective | 90 | 95.98 (15.33) % | – |
| 11.9 | O=C(Nc1ccc(Cl)cc1)c1cc(I)cc(I)c1O [Amb1935028] | significant inhibition | 32 | 58.81 (34.11) % | cytotoxicity on AtT-20 cells, in words (FIG. 6) (AtT-20 cells): partially cytotoxic |
| > 40 | O=C(CSc1ccccc1F)Nc1cccc(OCc2ccccn2)c1 [Z393438700] | ineffective | 92 | 101.1 (16.04) % | – |
| – | O=C(Nc1ccc(Oc2ccc(Cl)cc2)c(Cl)c1)c1cc(I)cc(I)c1O [Rafoxanide, reference compound] | significant inhibition | – | – | ACTH secretion % of control (DMSO) at 25 μM (AtT-20 pituitary cells; 25 μM, 24-hour treatment, AtT-20 supernatant, listed as Rafoxanide Amb2704313, 25 µM): 33%; ACTH secretion % of control (DMSO) at 25 μM (AtT-20 pituitary cells; 25 μM, 24-hour treatment, AtT-20 supernatant, listed as Rafoxanide MCE HY-17598, 25 µM): 57%; cytotoxicity on AtT-20 cells, in words (FIG. 6) (AtT-20 cells): partially cytotoxic; AtT-20 cell viability (PrestoBlue assay) % of control (DMSO) at 25 μM Mean (SD) (AtT-20 cells; 24-hour exposure, listed as Rafoxanide Amb2704313): 39.30 (6.852) %; AtT-20 cell viability (PrestoBlue assay) % of control (DMSO) at 25 μM Mean (SD) (AtT-20 cells; 24-hour exposure, listed as Rafoxanide MCE HY-17598): 56.15 (3.536) % |
| 8.98 | O=C(Nc1cc(Cl)cc(Cl)c1)c1cc(I)cc(I)c1O [Amb8477462] | significant inhibition | 31 | 67.96 (17.52) % | – |
| – | O=C(Nc1ccccc1)c1ccccc1O [Salicylanilide, reference compound] | ineffective | – | 105.4 (14.77) % | IC50 ([1]; USP8FL inhbition IC50 [μM] (CI: Confidence Interval)): > 40 µM; activity at 25 µM (AtT-20 pituitary cells; Mus musculus, AtT20, 24 h, read-out: ACTH secretion % of control (DMSO) at 25 μM, 25 μM, 24-hour treatment, AtT-20 supernatant): 99% |

| Structure (SMILES) | IC50 [1, 2] [µM] | inhibition of ACTH at 25 μM, in words (FIG. 4, FIG. 5) (AtT-20 pituitary cells; 25 μM, 24-hour treatment) | activity at 25 µM (AtT-20 pituitary cells; [3]) [%] | AtT-20 cell viability (PrestoBlue assay) % of control (DMSO) at 25 μM Mean (SD) (AtT-20 cells; 24-hour exposure) | also measured |
| --- | --- | --- | --- | --- | --- |
| O=C(Nc1ccc(Cl)cc1C(=O)c1ccccc1F)c1ccc(=O)[nH]c1 [Z220328740] | > 40 | ineffective | – | 102.9 (15.16) % | ACTH secretion % of control (DMSO) at 25 μM (AtT-20 pituitary cells; 25 μM, 24-hour treatment, AtT-20 supernatant): 82% |
